Experimental data from PubChem BioAssay (NCI).
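Where inhibition never reached the appropriate level, the endpoint shown equals the highest concentration tested. Otherwise, values were interpolated linearly from a five-concentration, 48-hour dose response in 96-well plates. At the GI50, growth is halved. The concentration for full growth arrest is given as TGI.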

Assays:
Assay in all cases: inhibition of tumour cell growth, NCI panel, 48 h
[1] = test system: 786-0 renal
[2] = test system: A498 renal
[3] = test system: A549 NSCLC
[4] = test system: ACHN renal
[5] = test system: BT-549 breast
[6] = test system: CAKI-1 renal
[7] = test system: CCRF-CEM leukemia
[8] = test system: COLO 205 colon
[9] = test system: DU-145 prostate
[10] = test system: EKVX NSCLC
[11] = test system: HCC-2998 colon
[12] = test system: HCT-116 colon
[13] = test system: HCT-15 colon
[14] = test system: HL-60(TB) leukemia
[15] = test system: HOP-62 NSCLC
[16] = test system: HOP-92 NSCLC
[17] = test system: HS 578T breast
[18] = test system: HT29 colon
[19] = test system: IGROV1 ovarian
[20] = test system: K-562 leukemia
[21] = test system: KM12 colon
[22] = test system: LOX IMVI melanoma
[23] = test system: M14 melanoma
[24] = test system: MALME-3M melanoma
[25] = test system: MCF7 breast
[26] = test system: MDA-MB-231 breast
[27] = test system: MDA-MB-435
[28] = test system: MOLT-4 leukemia
[29] = test system: NCI-H226 lung
[30] = test system: NCI-H23 lung
[31] = test system: NCI-H460 lung
[32] = test system: NCI-H522 lung
[33] = test system: NCI/ADR-RES ovarian
[34] = test system: OVCAR-3 ovarian
[35] = test system: OVCAR-4 ovarian
[36] = test system: OVCAR-5 ovarian
[37] = test system: OVCAR-8 ovarian
[38] = test system: PC-3 prostate
[39] = test system: RPMI-8226 leukemia
[40] = test system: RXF 393 renal
[41] = test system: SF-268 CNS
[42] = test system: SF-295 CNS
[43] = test system: SF-539 CNS
[44] = test system: SK-MEL-2 melanoma
[45] = test system: SK-MEL-28 melanoma
[46] = test system: SK-MEL-5 melanoma
[47] = test system: SK-OV-3 ovarian
[48] = test system: SN12C renal
[49] = test system: SNB-19 CNS
[50] = test system: SNB-75 CNS
[51] = test system: T-47D breast
[52] = test system: TK-10 renal
[53] = test system: U251 CNS
[54] = test system: UACC-257 melanoma
[55] = test system: UACC-62 melanoma
[56] = test system: UO-31 renal

O=C(CCCCCNC1=CC(=O)c2ccccc2C1=O)NCCC[Te]c1ccccc1
GI50 [1]: 2000 nM
TGI [1]: 4170 nM
GI50 [2]: 302 nM
TGI [2]: 1660 nM
GI50 [3]: 320 nM
TGI [3]: 1540 nM
GI50 [4]: 408 nM
TGI [4]: 1490 nM
GI50 [5]: 297 nM
TGI [5]: 916 nM
GI50 [6]: 1700 nM
TGI [6]: 3930 nM
GI50 [7]: 251 nM
TGI [7]: 774 nM
GI50 [8]: 416 nM
TGI [8]: 1360 nM
GI50 [9]: 430 nM
TGI [9]: 1900 nM
GI50 [10]: 259 nM
TGI [10]: 928 nM
GI50 [11]: 798 nM
TGI [11]: 2440 nM
GI50 [12]: 295 nM
TGI [12]: 980 nM
GI50 [13]: 293 nM
TGI [13]: 1400 nM
GI50 [14]: 315 nM
TGI [14]: 4400 nM
GI50 [15]: 272 nM
TGI [15]: 731 nM
GI50 [16]: 583 nM
TGI [16]: 1650 nM
GI50 [17]: 364 nM
TGI [17]: 2650 nM
GI50 [18]: 377 nM
TGI [18]: 1480 nM
GI50 [19]: 518 nM
TGI [19]: 1890 nM
GI50 [20]: 720 nM
TGI [20]: 3830 nM
GI50 [21]: 351 nM
TGI [21]: 1300 nM
GI50 [22]: 300 nM
TGI [22]: 1400 nM
GI50 [23]: 473 nM
TGI [23]: 1860 nM
GI50 [24]: 2210 nM
TGI [24]: 4210 nM
GI50 [25]: 327 nM
TGI [25]: 4660 nM
GI50 [26]: 236 nM
TGI [26]: 606 nM
GI50 [27]: 1920 nM
TGI [27]: 4670 nM
GI50 [28]: 258 nM
TGI [28]: 746 nM
GI50 [29]: 335 nM
TGI [29]: 1230 nM
GI50 [30]: 336 nM
TGI [30]: 1480 nM
GI50 [31]: 197 nM
TGI [31]: 576 nM
GI50 [32]: 1750 nM
TGI [32]: 81500 nM
GI50 [33]: 425 nM
TGI [33]: 4620 nM
GI50 [34]: 676 nM
TGI [34]: 2220 nM
GI50 [35]: 2210 nM
TGI [35]: 7590 nM
GI50 [36]: 362 nM
TGI [36]: 1480 nM
GI50 [37]: 446 nM
GI50 [38]: 250 nM
TGI [38]: 2580 nM
GI50 [39]: 291 nM
TGI [39]: 1040 nM
GI50 [40]: 1540 nM
TGI [40]: 4110 nM
GI50 [41]: 359 nM
TGI [41]: 1410 nM
GI50 [42]: 248 nM
TGI [42]: 686 nM
GI50 [43]: 618 nM
TGI [43]: 2150 nM
GI50 [44]: 2790 nM
TGI [44]: 6300 nM
GI50 [45]: 1210 nM
TGI [45]: 3340 nM
GI50 [46]: 1370 nM
TGI [46]: 2670 nM
GI50 [47]: 487 nM
TGI [47]: 1850 nM
GI50 [48]: 331 nM
TGI [48]: 1560 nM
GI50 [49]: 1640 nM
TGI [49]: 9650 nM
GI50 [50]: 290 nM
TGI [50]: 1480 nM
GI50 [51]: 676 nM
TGI [51]: 2590 nM
GI50 [52]: 2050 nM
TGI [52]: 6040 nM
GI50 [53]: 356 nM
TGI [53]: 1870 nM
GI50 [54]: 2400 nM
TGI [54]: 6330 nM
GI50 [55]: 1320 nM
TGI [55]: 3370 nM
GI50 [56]: 311 nM
TGI [56]: 1300 nM
